How the values were obtained:
Assay type in all cases: cell-based
CDK4 = target: T1, CDK4 (Homo sapiens, UniProt P11802); assay: CDK4 degradation (DC50, Dmax)
T1 construct: endogenous in cells

[1] = system: mantle cell lymphoma cell (Mino or JeKo-1); assay: Antiproliferative effect, MTS cell viability assay; settings: 72 h; for IC50: mantle cell lymphoma cell (Mino or JeKo-1), MTS assay, read-out: IC50 (anti-proliferation); for inhibition of cell proliferation of Mino cells: 0-1 μM, result in words
How it was run: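 Mino cells treated with compounds at 0, 0.0001, 0.001, 0.01, 0.1, 1 μM for 72 h; palbociclib and abemaciclib as positive controls. Viability by MTS, formazan absorbance read at 490 nm.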

CDK6 = target: T2, CDK6 (Homo sapiens, UniProt Q00534); assay: CDK6 degradation (DC50, Dmax)
T2 construct: endogenous in cells
T2 sequence (Q00534 whole entry): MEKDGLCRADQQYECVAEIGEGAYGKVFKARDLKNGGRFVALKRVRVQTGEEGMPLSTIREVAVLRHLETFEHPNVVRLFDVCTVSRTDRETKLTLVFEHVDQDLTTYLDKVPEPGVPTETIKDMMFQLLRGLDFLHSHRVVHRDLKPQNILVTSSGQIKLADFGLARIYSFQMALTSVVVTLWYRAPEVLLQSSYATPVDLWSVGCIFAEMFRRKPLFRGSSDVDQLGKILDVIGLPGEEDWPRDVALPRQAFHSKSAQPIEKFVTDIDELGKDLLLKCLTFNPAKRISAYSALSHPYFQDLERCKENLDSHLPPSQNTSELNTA

T1 sequence (P11802 whole entry): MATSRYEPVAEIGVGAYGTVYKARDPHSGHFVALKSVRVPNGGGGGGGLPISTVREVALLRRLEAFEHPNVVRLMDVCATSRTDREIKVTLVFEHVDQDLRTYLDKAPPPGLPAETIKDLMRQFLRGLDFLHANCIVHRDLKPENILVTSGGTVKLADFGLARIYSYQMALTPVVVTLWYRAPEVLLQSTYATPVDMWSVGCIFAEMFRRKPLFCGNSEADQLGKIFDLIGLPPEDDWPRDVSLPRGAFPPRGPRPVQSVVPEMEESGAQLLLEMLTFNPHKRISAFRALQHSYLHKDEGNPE

SMILES	DC50 (CDK4) [nM]	Dmax (CDK4) [%]	IC50 [1] [nM]	DC50 (CDK6) [nM]	Dmax (CDK6) [%]	inhibition of cell proliferation of Mino cells [1]
CC(=O)c1c(C)c2cnc(Nc3ccc(N4CCN(CC5CCN(C(=O)Nc6ccc7c(c6)CN(C6CCC(=O)NC6=O)C7=O)CC5)CC4)cn3)nc2n(C2CCCC2)c1=O (stereo not shown) [Compound 42, 4-((4-(6-((6-acetyl-8-cyclopentyl-5-methyl-7-oxo-7,8-dihydropyrido[2,3-d]pyrimidin-2-yl)amino)pyridin-3-yl)piperazin-1-yl)methyl)-N-(2-(2,6-dioxopiperidin-3-yl)-1-oxoisoindolin-5-yl)piperidine-1-carboxamide]	50 to 200	> 80	50 to 200	50 to 200	> 80	–
CC(=O)c1c(C)c2cnc(Nc3ccc(N4CCN(CCN5CCN(C(=O)Nc6ccc7c(c6)C(=O)N(C6CCC(=O)NC6=O)C7=O)CC5)CC4)cn3)nc2n(C2CCCC2)c1=O (stereo not shown) [Compound 43, 4-(2-(4-(6-((6-acetyl-8-cyclopentyl-5-methyl-7-oxo-7,8-dihydropyrido[2,3-d]pyrimidin-2-yl)amino)pyridin-3-yl)piperazin-1-yl)ethyl)-N-(2-(2,6-dioxopiperidin-3-yl)-1,3-dioxoisoindolin-5-yl)piperazine-1-carboxamide]	50 to 200	> 60	50 to 200	50 to 200	> 60	–
CC(=O)c1c(C)c2cnc(Nc3ccc(N4CCN(CCN5CCN(C(=O)Nc6ccc7c(c6)CN(C6CCC(=O)NC6=O)C7=O)CC5)CC4)cn3)nc2n(C2CCCC2)c1=O (stereo not shown) [Compound 44]	50 to 200	> 60	50 to 200	50 to 200	> 60	–
CC(=O)c1c(C)c2cnc(Nc3ccc(N4CCN(CCC5CCN(C(=O)Nc6ccc7c(c6)C(=O)N(C6CCC(=O)NC6=O)C7=O)CC5)CC4)cn3)nc2n(C2CCCC2)c1=O (stereo not shown) [Compound 45, 4-(2-(4-(6-((6-acetyl-8-cyclopentyl-5-methyl-7-oxo-7,8-dihydropyrido[2,3-d]pyrimidin-2-yl)amino)pyridin-3-yl)piperazin-1-yl)ethyl)-N-(2-(2,6-dioxopiperidin-3-yl)-1,3-dioxoisoindolin-5-yl)piperidine-1-carboxamide]	50 to 200	> 60	50 to 200	50 to 200	> 60	–
CC(=O)c1c(C)c2cnc(Nc3ccc(N4CCN(CCC5CCN(C(=O)Nc6ccc7c(c6)CN(C6CCC(=O)NC6=O)C7=O)CC5)CC4)cn3)nc2n(C2CCCC2)c1=O (stereo not shown) [Compound 46, 4-(2-(4-(6-((6-acetyl-8-cyclopentyl-5-methyl-7-oxo-7,8-dihydropyrido[2,3-d]pyrimidin-2-yl)amino)pyridin-3-yl)piperazin-1-yl)ethyl)-N-(2-(2,6-dioxopiperidin-3-yl)-1-oxoisoindolin-5-yl)piperidine-1-carboxamide]	> 200	> 60	50 to 200	50 to 200	> 60	–
CC(=O)c1c(C)c2cnc(Nc3ccc(N4CCN(CCNc5ccc6c(c5)C(=O)N(C5CCC(=O)NC5=O)C6=O)CC4)cn3)nc2n(C2CCCC2)c1=O (stereo not shown) [Compound 47, 5-((2-(4-(6-((6-acetyl-8-cyclopentyl-5-methyl-7-oxo-7,8-dihydropyrido[2,3-d]pyrimidin-2-yl)amino)pyridin-3-yl)piperazin-1-yl)ethyl)amino)-2-(2,6-dioxopiperidin-3-yl)isoindoline-1,3-dione]	< 50	> 80	< 50	< 50	> 80	dose-dependent inhibition of cell proliferation
CC(=O)c1c(C)c2cnc(Nc3ccc(N4CCN(CCNc5ccc6c(c5)CN(C5CCC(=O)NC5=O)C6=O)CC4)cn3)nc2n(C2CCCC2)c1=O (stereo not shown) [Compound 48, 3-(5-((2-(4-(6-((6-acetyl-8-cyclopentyl-5-methyl-7-oxo-7,8-dihydropyrido[2,3-d]pyrimidin-2-yl)amino)pyridin-3-yl)piperazin-1-yl)ethyl)amino)-1-oxoisoindolin-2-yl)piperidine-2,6-dione]	< 50	> 80	< 50	< 50	> 80	–
CC(=O)c1c(C)c2cnc(Nc3ccc(N4CCN(CCCNc5ccc6c(c5)CN(C5CCC(=O)NC5=O)C6=O)CC4)cn3)nc2n(C2CCCC2)c1=O (stereo not shown) [Compound 50, 3-(5-((3-(4-(6-((6-acetyl-8-cyclopentyl-5-methyl-7-oxo-7,8-dihydropyrido[2,3-d]pyrimidin-2-yl)amino)pyridin-3-yl)piperazin-1-yl)propyl)amino)-1-oxoisoindolin-2-yl)piperidine-2,6-dione]	< 50	> 80	< 50	< 50	> 80	dose-dependent inhibition of cell proliferation
CC(=O)c1c(C)c2cnc(Nc3ccc(N4CCN(CCCNc5cc6c(cc5F)C(=O)N(C5CCC(=O)NC5=O)C6=O)CC4)cn3)nc2n(C2CCCC2)c1=O (stereo not shown) [Compound 51, 5-((3-(4-(6-((6-acetyl-8-cyclopentyl-5-methyl-7-oxo-7,8-dihydropyrido[2,3-d]pyrimidin-2-yl)amino)pyridin-3-yl)piperazin-1-yl)propyl)amino)-2-(2,6-dioxopiperidin-3-yl)-6-fluoroisoindoline-1,3-dione]	50 to 200	> 80	< 50	50 to 200	> 80	–
CC(=O)c1c(C)c2cnc(Nc3ccc(N4CCN(CCCNc5cc6c(cc5F)C(=O)N(C5CCC(=O)NC5=O)C6)CC4)cn3)nc2n(C2CCCC2)c1=O (stereo not shown) [Compound 52, 3-(5-((3-(4-(6-((6-acetyl-8-cyclopentyl-5-methyl-7-oxo-7,8-dihydropyrido[2,3-d]pyrimidin-2-yl)amino)pyridin-3-yl)piperazin-1-yl)propyl)amino)-6-fluoro-1-oxoisoindolin-2-yl) piperidine-2,6-dione]	50 to 200	> 80	< 50	50 to 200	> 80	–
CC(=O)c1c(C)c2cnc(Nc3ccc(N4CCN(CCCCNc5ccc6c(c5)C(=O)N(C5CCC(=O)NC5=O)C6=O)CC4)cn3)nc2n(C2CCCC2)c1=O (stereo not shown) [Compound 53, 5-((4-(4-(6-((6-acetyl-8-cyclopentyl-5-methyl-7-oxo-7,8-dihydropyrido[2,3-d]pyrimidin-2-yl)amino)pyridin-3-yl)piperazin-1-yl)butyl)amino)-2-(2,6-dioxopiperidin-3-yl)isoindoline-1,3-dione]	50 to 200	> 60	< 50	50 to 200	> 80	–
CC(=O)c1c(C)c2cnc(Nc3ccc(N4CCN(CCCCNc5ccc6c(c5)CN(C5CCC(=O)NC5=O)C6=O)CC4)cn3)nc2n(C2CCCC2)c1=O (stereo not shown) [Compound 54, 3-(5-((4-(4-(6-((6-acetyl-8-cyclopentyl-5-methyl-7-oxo-7,8-dihydropyrido[2,3-d]pyrimidin-2-yl)amino)pyridin-3-yl)piperazin-1-yl)butyl)amino)-1-oxoisoindolin-2-yl)piperidine-2,6-dione]	50 to 200	> 60	< 50	50 to 200	> 60	–
CC(=O)c1c(C)c2cnc(Nc3ccc(N4CCN(CCN(C)c5ccc6c(c5)C(=O)N(C5CCC(=O)NC5=O)C6=O)CC4)cn3)nc2n(C2CCCC2)c1=O (stereo not shown) [Compound 55, 5-((2-(4-(6-((6-acetyl-8-cyclopentyl-5-methyl-7-oxo-7,8-dihydropyrido[2,3-d]pyrimidin-2-yl)amino)pyridin-3-yl)piperazin-1-yl)ethyl)(methyl)amino)-2-(2,6-dioxopiperidin-3-yl) isoindoline-1,3-dione]	50 to 200	> 60	50 to 200	50 to 200	> 60	–
CC(=O)c1c(C)c2cnc(Nc3ccc(N4CCN(CCN(C)c5ccc6c(c5)CN(C5CCC(=O)NC5=O)C6=O)CC4)cn3)nc2n(C2CCCC2)c1=O (stereo not shown) [Compound 56, 3-(5-((2-(4-(6-((6-acetyl-8-cyclopentyl-5-methyl-7-oxo-7,8-dihydropyrido[2,3-d]pyrimidin-2-yl)amino)pyridin-3-yl)piperazin-1-yl)ethyl)(methyl)amino)-1-oxoisoindolin-2-yl)piperidine-2,6-dione]	50 to 200	> 60	50 to 200	50 to 200	> 60	–
CC(=O)c1c(C)c2cnc(Nc3ccc(N4CCN(CCCN(C)c5ccc6c(c5)C(=O)N(C5CCC(=O)NC5=O)C6=O)CC4)cn3)nc2n(C2CCCC2)c1=O (stereo not shown) [Compound 57, 5-((3-(4-(6-((6-acetyl-8-cyclopentyl-5-methyl-7-oxo-7,8-dihydropyrido[2,3-d]pyrimidin-2-yl)amino)pyridin-3-yl)piperazin-1-yl)propyl)(methyl)amino)-2-(2,6-dioxopiperidin-3-yl)isoindoline-1,3-dione]	50 to 200	> 60	50 to 200	50 to 200	> 60	–
CC(=O)c1c(C)c2cnc(Nc3ccc(N4CCN(CCCN(C)c5ccc6c(c5)CN(C5CCC(=O)NC5=O)C6=O)CC4)cn3)nc2n(C2CCCC2)c1=O (stereo not shown) [Compound 58, 3-(5-((3-(4-(6-((6-acetyl-8-cyclopentyl-5-methyl-7-oxo-7,8-dihydropyrido[2,3-d]pyrimidin-2-yl)amino)pyridin-3-yl)piperazin-1-yl)propyl) (methyl)amino)-1-oxoisoindolin-2-yl) piperidine-2,6-dione]	50 to 200	> 60	50 to 200	50 to 200	> 60	–
